Laboratory results published in BindingDB's records for doi:10.1021/jm051134w (Parion Sciences, 2006).

biological target: Amiloride-sensitive sodium channel (Canis familiaris); assay: Inhibition of dog bronchi prototypical epithelial sodium channel by electrophysiological assay

Compound	IC50 [nM]
NC(=NCCc1ccc(O)cc1)NC(=O)c1nc(Cl)c(N)nc1N [N-(3,5-diamino-6-chloropyrazine-2-carbonyl)-N'-[2-(4-hydroxyphenyl)ethyl]-guanidine]	62
NC(=NCCCCc1ccc(OC2O[C@H](C(=O)O)[C@@H](O)[C@H](O)[C@H]2O)cc1)NC(=O)c1nc(Cl)c(N)nc1N (stereo not given in full) [6-(4-{4-[N'-(3,5-diamino-6-chloropyrazine-2-carbonyl)-guanidino]butyl}phenoxy)-3,4,5-trihydroxytetrahydropyran-2-carboxylic acid]	73
COC(=O)c1ccc(CCCCN=C(N)NC(=O)c2nc(Cl)c(N)nc2N)cc1 [4-{4-[N'-(3,5-diamino-6-chloropyrazine-2-carbonyl)guanidino]-butyl}benzoic acid methyl ester]	22
NC(=NCCO)NC(=O)c1nc(Cl)c(N)nc1N [N-(3,5-diamino-6-chloropyrazine-2-carbonyl)-N'-(2-hydroxyethyl)guanidine]	107
NC(=NCCCOc1ccc(O)cc1)NC(=O)c1nc(Cl)c(N)nc1N [N-(3,5-diamino-6-chloropyrazine-2-carbonyl)-N'-[3-(4-hydroxyphenoxy)propyl]-guanidine]	32
NC(=NCCCc1ccc(O)cc1)NC(=O)c1nc(Cl)c(N)nc1N [N-(3,5-diamino-6-chloropyrazine-2-carbonyl)-N'-[3-(4-hydroxyphenyl)propyl]-guanidine]	88
NC(=NCCCCc1ccc(N)cc1)NC(=O)c1nc(Cl)c(N)nc1N [1-(4-(4-aminophenyl)butyl)-3-(3,5-diamino-2-chloropyrazine-6-carbonyl)guanidine]	21
COc1ccc(CCCCCN=C(N)NC(=O)c2nc(Cl)c(N)nc2N)cc1 [N-(3,5-diamino-6-chloropyrazine-2-carbonyl)-N'-[5-(4-methoxyphenyl)pentyl]-guanidine]	77
CCCCCCCCN=C(N)NC(=O)c1nc(Cl)c(N)nc1N [N-(3,5-diamino-6-chloropyrazine-2-carbonyl)-N'-octylguanidine]	108
NC(=NCCCCc1ccccc1)NC(=O)c1nc(Cl)c(N)nc1N [N-(3,5-diamino-6-chloropyrazine-2-carbonyl)-N'-(4-phenylbutyl)guanidine]	29
NC(=NCCCCCCCCc1ccccc1)NC(=O)c1nc(Cl)c(N)nc1N [N-(3,5-diamino-6-chloropyrazine-2-carbonyl)-N'-(8-phenyloctyl)guanidine]	477
NC(=NCCCCc1ccc(OCCO)cc1)NC(=O)c1nc(Cl)c(N)nc1N [N-(3,5-diamino-6-chloropyrazine-2-carbonyl)-N'-{4-[4-(2-hydroxyethoxy)phenyl]-butyl}guanidine]	9
NC(=NCCCCc1ccccc1OCCO)NC(=O)c1nc(Cl)c(N)nc1N [N-(3,5-diamino-6-chloropyrazine-2-carbonyl)-N'-{4-[2-(2-hydroxyethoxy)phenyl]-butyl}guanidine]	31
NC(=NCCCCc1ccc(C(=O)O)cc1)NC(=O)c1nc(Cl)c(N)nc1N [4-{4-[N'-(3,5-diamino-6-chloropyrazine-2-carbonyl)guanidino]-butyl}benzoic acid]	51
NC(=NCCCCc1cccc(O)c1)NC(=O)c1nc(Cl)c(N)nc1N [N-(3,5-diamino-6-chloropyrazine-2-carbonyl)-N'-[4-(5-hydroxyphenyl)butyl]-guanidine]	20
NC(=NCCCCc1ccc(OCCCO)cc1)NC(=O)c1nc(Cl)c(N)nc1N [N-(3,5-diamino-6-chloropyrazine-2-carbonyl)-N'-{4-[4-(3-hydroxypropoxy)phenyl]-butyl}guanidine]	7
CCCCCCN=C(N)NC(=O)c1nc(Cl)c(N)nc1N [N-(3,5-diamino-6-chloropyrazine-2-carbonyl)-N'-hexylguanidine]	87
NC(=NCCCCc1ccc(CO)cc1)NC(=O)c1nc(Cl)c(N)nc1N [N-(3,5-diamino-6-chloropyrazine-2-carbonyl)-N'-[4-(4-hydroxymethylphenyl)-butyl]guanidine]	14
NC(=NCCCCc1cccc(OCC(O)CO)c1)NC(=O)c1nc(Cl)c(N)nc1N (stereo not given) [N-(3,5-diamino-6-chloropyrazine-2-carbony)-N'-{4-[3-(2,3-dihydroxypropoxy)-phenyl]butyl}guanidine]	26
NC(=NCCCCc1cccc(OCCO)c1)NC(=O)c1nc(Cl)c(N)nc1N [N-(3,5-diamino-6-chloropyrazine-2-carbonyl)-N'-{4-[3-(2-hydroxyethoxy)phenyl]-butyl}guanidine]	17
COc1ccc(CCCN=C(N)NC(=O)c2nc(Cl)c(N)nc2N)cc1 [N-(3,5-diamino-6-chloropyrazine-2-carbonyl)-N'-[3-(4-methoxyphenyl)propyl]-guanidine]	124
NC(=NCCCCCc1ccccc1)NC(=O)c1nc(Cl)c(N)nc1N [N-(3,5-diamino-6-chloropyrazine-2-carbonyl)-N'-(5-phenylpentyl)guanidine]	68
COc1ccc(COCCN=C(N)NC(=O)c2nc(Cl)c(N)nc2N)cc1 [N-(3,5-diamino-6-chloropyrazine-2-carbonyl)-N'-[2-(4-methoxybenzyloxy)ethyl]-guanidine]	41
NC(=NCCCCc1ccccc1OCC(O)CO)NC(=O)c1nc(Cl)c(N)nc1N (stereo not given) [N-(3,5-diamino-6-chloropyrazine-2-carbony)-N'-{4-[2-(2,3-dihydroxypropoxy)-phenyl]butyl}guanidine]	28
COc1ccc(CCCCN=C(N)NC(=O)c2nc(Cl)c(N)nc2N)cc1 [N-(3,5-diamino-6-chloropyrazine-2-carbonyl)-N'-[4-(4-methoxyphenyl)butyl]-guanidine]	15
